From patent publication US9006221B2, “Method of modulating ship activity” (H. Lee Moffitt Cancer Center and Reserach Institute, Inc., priority 2008, dated 2015)

System: Mac1+Gr1+ myeloid immunoregulatory cells
Experiment: FACS quantitation of Mac1+Gr1+ myeloid suppressor (MySC/MIR) cells in spleen and lymph node of treated mice
Type: in vivo, mouse
Conditions: for number of Mac1+Gr1+ MySC (MDSC): daily injection at 125 μM for 7 days; for number of MIR cells: daily i.p. injection at 60 μM for 7 days
Method: FACS quantitation of Mac1^+Gr1^+ Myeloid-Derived Suppressor Cells (Mac1^+Gr1^+ MySC) (A,B) and FoxP3^+CD4^+CD25^+ Treg cells (C,D) in spleen and lymph node of C57BL6 mice treated with NSC13480, vehicle or non-manipulated mice (Normal). ***p<0.001; *p<0.05.
In addition, both donor and host Treg cells can also limit or abrogate GvHD. […] (Paraiso, K. H., et al. 2007. J Immunol 178:2893). […] Adult mice were treated for 7 days with a daily injection of NSC13480 at 125 μM. The frequency of MySC and Treg cells was tested in the spleens of mice treated with NSC13480, the vehicle used for delivery of NSC 13480 and normal, untreated mice.
Expansion of the Mac1^+Gr1^+ MIR cell compartment can suppress GvHD. [Ghansah T, et al., J Immunol (2004) 173(12):7324-7330; Paraiso K H, et al., J Immunol (2007) 178(5):2893-2900; MacDonald K P, et al., J Immunol (2005) 174(4):1841-1850] Thus, the ability 3α-aminocholestane to expand the MIR compartment in peripheral lymphoid tissues, where GvHD and organ transplant rejection are primed, was tested. Adult mice were treated for 7 days with a daily intraperitoneal (i.p.) injection of 3α-aminocholestane at 60 μM. We then compared the frequency of MIR cells in the spleens and LN of mice treated with 3α-aminocholestane to that of control mice treated with either their respective vehicles or to unmanipulated mice. […] Thus, consistent with the findings in mice genetically ablated for SHIP1 expression during adult physiology [Paraiso K H, et al., J Immunol (2007) 178(5):2893-2900], inhibition of SHIP1 activity in adult mice expands the MIR cell compartment in peripheral lymphoid tissues.
Antibody staining and flow cytometry (Examples 1-6): Anti-CD16/32 was co-incubated with the samples to block Fc receptor binding. Antibodies used for staining included: NK1.1 (PK136); CD3e (145-2C11); Ly49G2 (4D11); Gr-1 (RB6-8C5); Mac-1(M1/70); CD11c (HL3); CD4 (GK1.5); CD25 (PC61) and were obtained from BD Pharmingen (San Jose, Calif.). FoxP3 (FJK-16s) was purchased from eBioScience (San Diego, Calif.). All samples were acquired on a FACSCalibur and analyzed using FlowJo8.7.1. For viable staining, dead cells were excluded from the analysis following cytometer acquisition of data by exclusion of the 7AAD dye. For staining of FoxP3, viable cells were first stained for extacellular markers followed by fixation and permeabilization to stain for the intracellular FoxP3.
Use of SHIP1 inhibitory compounds for in vitro and in vivo studies: For in vitro studies 3α-aminocholestane was suspended in 100% ethanol. […]
Antibody staining and flow cytometry (Examples 7-9): Anti-CD16/32 was incubated with the samples to block Fc receptor binding. […] All samples were acquired on a FACSCalibur and analyzed using FlowJo8.7.1. […]

SMILES | number of Mac1+Gr1+ MySC (MDSC) (lymph node) | number of Mac1+Gr1+ MySC (MDSC) (spleen) | number of MIR cells (lymph node) | number of MIR cells (spleen)
OC(c1cc(-c2ccccc2)nc2c1ccc1ccccc12)C1CCCCN1 (stereo not shown) [NSC13480, (2-phenylbenzo[h]quinolin-4-yl)-piperidin-2-ylmethanol] | increased significantly | increased significantly | – | –
CC(C)CCC[C@@H](C)[C@H]1CC[C@H]2[C@@H]3CC[C@H]4C[C@H](N)CC[C@]4(C)[C@H]3CC[C@]12C [NSC23922, (3R,5S,8R,9S,10S,13R,14S,17R)-10,13-dimethyl-17-[(2R)-6-methylheptan-2-yl]-2,3,4,5,6,7,8,9,11,12,14,15,16,17-tetradecahydro-1H-cyclopenta[a]phenanthren-3-amine] | – | – | increased significantly | increased significantly
